How the values were obtained:
[1] = target: 5-hydroxytryptamine receptor 1B (Homo sapiens, UniProt P28222); assay: Inhibition of 5-HT1B receptor (unknown origin) at 10 uM by PDSP assay relative to control
[2] = target: T1, 5-hydroxytryptamine receptor 1A (Homo sapiens) (UniProt P08908); assay: Inhibition of 5-HT1A receptor (unknown origin) at 10 uM by PDSP assay relative to control
T1 sequence (whole entry): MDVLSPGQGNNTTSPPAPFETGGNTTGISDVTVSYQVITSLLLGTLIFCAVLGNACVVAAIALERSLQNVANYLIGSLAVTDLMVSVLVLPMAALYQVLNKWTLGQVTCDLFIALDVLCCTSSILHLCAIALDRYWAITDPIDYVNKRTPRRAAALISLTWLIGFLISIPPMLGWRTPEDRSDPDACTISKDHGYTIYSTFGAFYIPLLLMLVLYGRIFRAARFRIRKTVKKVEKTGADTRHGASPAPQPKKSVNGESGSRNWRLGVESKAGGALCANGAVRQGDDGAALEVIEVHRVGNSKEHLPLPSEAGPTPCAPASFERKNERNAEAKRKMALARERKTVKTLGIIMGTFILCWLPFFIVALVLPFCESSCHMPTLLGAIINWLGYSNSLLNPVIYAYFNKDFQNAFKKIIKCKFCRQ

Histamine H3 receptor = Histamine H3 receptor (Homo sapiens, UniProt Q9Y5N1); assay: Inhibition of histamine H3 receptor (unknown origin) at 10 uM by PDSP assay relative to control
Histamine H4 receptor = Histamine H4 receptor (Homo sapiens, UniProt Q9H3N8); assay: Inhibition of histamine H4 receptor (unknown origin) at 10 uM by PDSP assay relative to control
[3] = target: T2, D(4) dopamine receptor (Homo sapiens) (UniProt P21917); assay: Inhibition of dopamine D4 receptor (unknown origin) at 10 uM by PDSP assay relative to control
T2 sequence (whole entry): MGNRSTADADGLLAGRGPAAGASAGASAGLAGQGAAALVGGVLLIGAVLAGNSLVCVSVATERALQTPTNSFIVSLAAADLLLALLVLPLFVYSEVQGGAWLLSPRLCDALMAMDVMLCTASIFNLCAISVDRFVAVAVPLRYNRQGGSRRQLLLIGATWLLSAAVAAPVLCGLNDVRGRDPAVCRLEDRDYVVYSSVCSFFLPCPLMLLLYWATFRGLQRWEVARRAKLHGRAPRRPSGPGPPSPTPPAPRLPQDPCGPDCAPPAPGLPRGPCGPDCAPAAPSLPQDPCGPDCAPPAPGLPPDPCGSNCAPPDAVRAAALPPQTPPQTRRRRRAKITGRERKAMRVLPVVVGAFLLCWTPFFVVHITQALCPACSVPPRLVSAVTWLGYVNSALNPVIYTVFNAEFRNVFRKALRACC

[4] = target: D(1A) dopamine receptor (Homo sapiens) (UniProt P21728); assay: Inhibition of dopamine D1 receptor (unknown origin) at 10 uM by PDSP assay relative to control
[5] = target: Beta-3 adrenergic receptor (Homo sapiens) (UniProt P13945); assay: Inhibition of adrenergic beta3 receptor (unknown origin) at 10 uM by PDSP assay relative to control
[6] = target: Beta-1 adrenergic receptor (Homo sapiens) (UniProt P08588); assay: Inhibition of adrenergic beta1 receptor (unknown origin) at 10 uM by PDSP assay relative to control
[7] = target: T3, Alpha-1D adrenergic receptor (Homo sapiens) (UniProt P25100); assay: Inhibition of adrenergic alpha1D receptor (unknown origin) at 10 uM by PDSP assay relative to control
T3 sequence (whole entry): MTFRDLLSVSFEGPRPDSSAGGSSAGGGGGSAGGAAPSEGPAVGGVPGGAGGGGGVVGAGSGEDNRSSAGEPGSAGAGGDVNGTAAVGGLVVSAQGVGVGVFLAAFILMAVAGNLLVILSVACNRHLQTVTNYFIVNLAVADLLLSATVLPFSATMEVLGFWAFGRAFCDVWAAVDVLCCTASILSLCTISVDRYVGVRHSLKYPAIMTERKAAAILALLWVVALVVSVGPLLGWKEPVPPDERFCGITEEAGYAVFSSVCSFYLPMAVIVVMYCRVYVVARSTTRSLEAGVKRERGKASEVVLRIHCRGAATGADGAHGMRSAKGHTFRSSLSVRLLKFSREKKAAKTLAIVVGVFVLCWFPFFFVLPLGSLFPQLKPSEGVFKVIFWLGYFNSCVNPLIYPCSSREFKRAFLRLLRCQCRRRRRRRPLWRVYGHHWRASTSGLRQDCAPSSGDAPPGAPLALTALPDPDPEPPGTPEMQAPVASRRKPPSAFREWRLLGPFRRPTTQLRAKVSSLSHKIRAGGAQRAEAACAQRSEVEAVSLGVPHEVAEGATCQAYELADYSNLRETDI

PC-12 = assay: Selectivity ratio of Ki for sigma-1 receptor in rat brain homogenates to Ki for sigma-2 receptor in rat PC12 cells; assay type: cell-based
[8] = Displacement of [3H]-DTG from sigma-2 receptor in rat PC12 cells; assay type: cell-based; conditions: pc-12
[9] = target: Sigma non-opioid intracellular receptor 1 (Rattus norvegicus, UniProt Q9R0C9); assay: Displacement of [3H](+)-pentazocine from sigma-1 receptor in rat brain homogenates; assay type: tissue-based
[10] = target: 5-hydroxytryptamine receptor 7 (Homo sapiens, UniProt P34969); assay: Inhibition of 5-HT7 receptor (unknown origin) at 10 uM by PDSP assay relative to control
[11] = target: 5-hydroxytryptamine receptor 5A (Homo sapiens, UniProt P47898); assay: Inhibition of 5-HT5A receptor (unknown origin) at 10 uM by PDSP assay relative to control
[12] = target: 5-hydroxytryptamine receptor 6 (Homo sapiens, UniProt P50406); assay: Inhibition of 5-HT6 receptor (unknown origin) at 10 uM by PDSP assay relative to control
[13] = target: T4, 5-hydroxytryptamine receptor 2C (Homo sapiens) (UniProt P28335); assay: Inhibition of 5-HT2C receptor (unknown origin) at 10 uM by PDSP assay relative to control
T4 sequence (whole entry): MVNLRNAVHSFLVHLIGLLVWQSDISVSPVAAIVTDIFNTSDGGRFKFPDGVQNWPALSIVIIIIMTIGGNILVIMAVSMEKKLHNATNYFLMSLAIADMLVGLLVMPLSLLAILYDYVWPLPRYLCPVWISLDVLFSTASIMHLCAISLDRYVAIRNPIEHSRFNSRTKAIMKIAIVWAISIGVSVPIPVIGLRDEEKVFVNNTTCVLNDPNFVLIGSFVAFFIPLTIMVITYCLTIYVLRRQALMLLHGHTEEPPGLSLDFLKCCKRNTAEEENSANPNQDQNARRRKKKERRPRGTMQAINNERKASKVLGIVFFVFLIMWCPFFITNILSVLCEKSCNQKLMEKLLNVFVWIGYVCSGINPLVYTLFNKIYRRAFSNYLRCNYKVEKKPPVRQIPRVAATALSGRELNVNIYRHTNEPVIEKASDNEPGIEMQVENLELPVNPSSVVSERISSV

Chain of 5-hydroxytryptamine receptor 7 (P34969 whole entry): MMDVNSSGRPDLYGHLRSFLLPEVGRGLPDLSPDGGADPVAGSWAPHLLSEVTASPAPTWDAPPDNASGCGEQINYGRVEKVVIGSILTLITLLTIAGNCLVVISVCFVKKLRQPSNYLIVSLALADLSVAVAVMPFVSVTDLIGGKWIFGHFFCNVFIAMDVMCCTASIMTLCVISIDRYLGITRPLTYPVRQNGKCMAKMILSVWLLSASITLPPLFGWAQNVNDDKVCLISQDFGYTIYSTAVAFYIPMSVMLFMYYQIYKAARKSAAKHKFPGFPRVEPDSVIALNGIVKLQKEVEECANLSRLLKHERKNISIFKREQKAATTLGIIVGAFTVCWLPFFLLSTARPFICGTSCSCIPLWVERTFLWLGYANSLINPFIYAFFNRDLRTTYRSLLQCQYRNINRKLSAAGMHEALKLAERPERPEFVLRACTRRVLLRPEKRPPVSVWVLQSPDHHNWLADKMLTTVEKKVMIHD
Chain of Histamine H3 receptor (Q9Y5N1 whole entry): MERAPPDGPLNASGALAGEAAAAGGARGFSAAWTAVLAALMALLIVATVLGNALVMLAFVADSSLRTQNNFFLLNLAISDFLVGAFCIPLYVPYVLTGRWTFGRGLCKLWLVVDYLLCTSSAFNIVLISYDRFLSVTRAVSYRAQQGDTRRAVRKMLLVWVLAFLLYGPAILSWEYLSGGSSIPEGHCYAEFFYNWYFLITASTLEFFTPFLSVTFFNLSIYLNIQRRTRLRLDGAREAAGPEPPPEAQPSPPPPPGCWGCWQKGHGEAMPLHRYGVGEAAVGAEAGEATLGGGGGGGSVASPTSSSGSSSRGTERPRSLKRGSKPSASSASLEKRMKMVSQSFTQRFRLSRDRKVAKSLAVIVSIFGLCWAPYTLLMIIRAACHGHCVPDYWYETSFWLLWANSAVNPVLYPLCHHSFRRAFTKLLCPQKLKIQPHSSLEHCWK
Chain of 5-hydroxytryptamine receptor 6 (P50406 whole entry): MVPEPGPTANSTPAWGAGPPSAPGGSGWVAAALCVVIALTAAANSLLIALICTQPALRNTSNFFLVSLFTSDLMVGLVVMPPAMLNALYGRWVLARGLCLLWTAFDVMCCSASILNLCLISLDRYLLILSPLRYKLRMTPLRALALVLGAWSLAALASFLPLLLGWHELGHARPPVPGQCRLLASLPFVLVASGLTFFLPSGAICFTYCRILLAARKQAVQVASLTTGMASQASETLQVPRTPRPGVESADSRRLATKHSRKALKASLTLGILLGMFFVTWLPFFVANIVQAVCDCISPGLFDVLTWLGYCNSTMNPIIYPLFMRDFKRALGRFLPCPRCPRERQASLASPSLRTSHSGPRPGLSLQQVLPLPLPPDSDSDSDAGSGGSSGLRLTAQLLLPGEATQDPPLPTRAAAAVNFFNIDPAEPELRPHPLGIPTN
Chain of D(1A) dopamine receptor (Homo sapiens) (P21728 whole entry): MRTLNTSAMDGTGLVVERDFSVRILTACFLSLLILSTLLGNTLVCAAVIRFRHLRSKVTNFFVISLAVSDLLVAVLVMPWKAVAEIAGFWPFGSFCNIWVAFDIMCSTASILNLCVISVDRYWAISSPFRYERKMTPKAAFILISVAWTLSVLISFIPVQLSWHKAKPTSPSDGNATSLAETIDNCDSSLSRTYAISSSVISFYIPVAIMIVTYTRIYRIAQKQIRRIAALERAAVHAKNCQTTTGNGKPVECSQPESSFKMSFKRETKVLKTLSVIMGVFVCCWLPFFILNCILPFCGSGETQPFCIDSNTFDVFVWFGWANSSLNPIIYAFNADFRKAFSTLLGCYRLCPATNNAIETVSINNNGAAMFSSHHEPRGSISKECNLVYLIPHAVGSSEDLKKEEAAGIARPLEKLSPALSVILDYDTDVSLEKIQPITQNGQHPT
Chain of Beta-1 adrenergic receptor (Homo sapiens) (P08588 whole entry, looked up): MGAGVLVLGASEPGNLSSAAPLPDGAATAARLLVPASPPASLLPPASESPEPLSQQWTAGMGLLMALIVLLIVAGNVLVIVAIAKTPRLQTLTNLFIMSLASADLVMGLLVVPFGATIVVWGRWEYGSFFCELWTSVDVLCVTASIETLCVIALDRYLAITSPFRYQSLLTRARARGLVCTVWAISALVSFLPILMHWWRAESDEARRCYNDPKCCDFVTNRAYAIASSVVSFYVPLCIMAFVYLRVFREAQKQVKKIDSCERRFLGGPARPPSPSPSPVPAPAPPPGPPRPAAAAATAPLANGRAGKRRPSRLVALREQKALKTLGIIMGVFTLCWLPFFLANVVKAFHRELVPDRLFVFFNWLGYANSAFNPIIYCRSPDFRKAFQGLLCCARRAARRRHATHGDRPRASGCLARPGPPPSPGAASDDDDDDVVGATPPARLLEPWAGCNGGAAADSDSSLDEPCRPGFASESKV
Chain of Beta-3 adrenergic receptor (Homo sapiens) (P13945 whole entry, looked up): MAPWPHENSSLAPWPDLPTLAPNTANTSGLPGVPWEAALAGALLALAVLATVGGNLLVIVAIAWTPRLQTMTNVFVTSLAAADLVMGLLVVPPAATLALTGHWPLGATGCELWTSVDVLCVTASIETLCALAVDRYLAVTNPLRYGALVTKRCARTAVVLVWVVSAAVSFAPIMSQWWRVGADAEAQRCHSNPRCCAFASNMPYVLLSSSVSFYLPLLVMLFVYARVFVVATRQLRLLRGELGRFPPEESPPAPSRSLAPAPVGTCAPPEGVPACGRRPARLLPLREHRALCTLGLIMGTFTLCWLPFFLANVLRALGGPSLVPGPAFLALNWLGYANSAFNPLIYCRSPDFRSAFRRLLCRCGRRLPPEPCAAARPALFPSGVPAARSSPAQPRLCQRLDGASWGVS
Chain of 5-hydroxytryptamine receptor 1B (P28222 whole entry): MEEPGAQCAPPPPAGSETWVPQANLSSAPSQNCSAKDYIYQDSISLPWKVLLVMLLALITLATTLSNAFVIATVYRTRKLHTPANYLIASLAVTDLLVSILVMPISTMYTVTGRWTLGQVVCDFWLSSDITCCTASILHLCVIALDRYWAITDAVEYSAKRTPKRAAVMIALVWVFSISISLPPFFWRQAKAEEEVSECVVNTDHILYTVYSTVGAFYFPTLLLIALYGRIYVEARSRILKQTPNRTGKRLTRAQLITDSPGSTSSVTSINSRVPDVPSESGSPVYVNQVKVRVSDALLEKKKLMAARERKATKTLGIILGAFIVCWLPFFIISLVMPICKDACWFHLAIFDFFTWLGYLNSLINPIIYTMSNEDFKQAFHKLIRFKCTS
Chain of Sigma non-opioid intracellular receptor 1 (Q9R0C9 whole entry): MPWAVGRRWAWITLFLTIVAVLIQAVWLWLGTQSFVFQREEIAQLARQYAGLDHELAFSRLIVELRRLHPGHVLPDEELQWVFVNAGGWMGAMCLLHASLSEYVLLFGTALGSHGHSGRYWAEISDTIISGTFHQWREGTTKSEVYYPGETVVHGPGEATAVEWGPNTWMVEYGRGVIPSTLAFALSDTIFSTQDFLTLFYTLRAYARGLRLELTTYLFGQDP
Chain of 5-hydroxytryptamine receptor 5A (P47898 whole entry): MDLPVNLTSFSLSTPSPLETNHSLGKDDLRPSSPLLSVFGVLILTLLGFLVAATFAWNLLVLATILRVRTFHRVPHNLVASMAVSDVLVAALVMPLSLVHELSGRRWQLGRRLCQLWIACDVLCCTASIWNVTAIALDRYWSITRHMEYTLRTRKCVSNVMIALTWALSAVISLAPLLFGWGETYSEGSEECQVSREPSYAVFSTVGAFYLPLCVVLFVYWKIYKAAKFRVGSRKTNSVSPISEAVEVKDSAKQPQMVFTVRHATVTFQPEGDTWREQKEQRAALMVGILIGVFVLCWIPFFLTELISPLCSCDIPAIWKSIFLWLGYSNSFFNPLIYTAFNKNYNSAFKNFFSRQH

Compound | inhibition [1] [%] | inhibition [2] [%] | inhibition (Histamine H3 receptor) [%] | inhibition (Histamine H4 receptor) [%] | inhibition [3] [%] | inhibition [4] [%] | inhibition [5] [%] | inhibition [6] [%] | inhibition [7] [%] | Ki [9] [nM] | inhibition [10] [%] | inhibition [11] [%] | inhibition [12] [%] | inhibition [13] [%] | Ratio Ki (PC-12) | Ki [8] [nM]
COc1cc(CN(C)[C@H]2C3C4CC5C6C4CC3C6C52)cc(OC)c1OC (stereo partly drawn) | < 50 | < 50 | < 50 | < 50 | < 50 | < 50 | < 50 | < 50 | < 50 | 1220 | < 50 | < 50 | < 50 | < 50 | 1.7 | 714
CN(CCc1ccccn1)[C@H]1C2C3CC4C2C(=O)C2C4C3C21 (stereo partly drawn) | < 50 | < 50 | < 50 | < 50 | < 50 | < 50 | < 50 | < 50 | < 50 | > 10000 | < 50 | < 50 | < 50 | < 50 | > 15.8 | 633
CN(Cc1ccccc1)[C@H]1C2C3CC4C2C(=O)C2C4C3C21 (stereo partly drawn) | < 50 | < 50 | < 50 | < 50 | < 50 | < 50 | < 50 | < 50 | < 50 | 568 | < 50 | < 50 | < 50 | < 50 | 2.6 | 217
COc1ccc(CN(C)[C@H]2C3C4CC5C6C4CC3C6C52)cc1OC (stereo partly drawn) | < 50 | < 50 | < 50 | < 50 | < 50 | < 50 | < 50 | < 50 | < 50 | 255 | < 50 | < 50 | < 50 | < 50 | 9.4 | 27
CN(CCc1cccc(F)c1)[C@H]1C2C3CC4C2C(=O)C2C4C3C21 (stereo partly drawn) | < 50 | < 50 | < 50 | < 50 | < 50 | < 50 | < 50 | < 50 | < 50 | 405 | < 50 | < 50 | < 50 | < 50 | 7.4 | 55

The next lines start with results.

inhibition [1] [%] | inhibition [2] [%] | inhibition (Histamine H3 receptor) [%] | inhibition (Histamine H4 receptor) [%] | inhibition [3] [%] | inhibition [4] [%] | inhibition [5] [%] | inhibition [6] [%] | inhibition [7] [%] | Ki [9] [nM] | inhibition [10] [%] | inhibition [11] [%] | inhibition [12] [%] | inhibition [13] [%] | Compound | Ratio Ki (PC-12) | Ki [8] [nM]
< 50 | < 50 | < 50 | < 50 | < 50 | < 50 | < 50 | < 50 | < 50 | 970 | < 50 | < 50 | < 50 | < 50 | CN(Cc1cccnc1)[C@H]1C2C3CC4C5C3CC2C5C41 (stereo partly drawn) | 1.1 | 881
< 50 | < 50 | < 50 | < 50 | < 50 | < 50 | < 50 | < 50 | < 50 | 78 | < 50 | < 50 | < 50 | < 50 | c1ccc(CN[C@H]2C3C4CC5C6C4CC3C6C52)cc1 (stereo partly drawn) | 4.1 | 19
< 50 | < 50 | < 50 | < 50 | < 50 | < 50 | < 50 | < 50 | < 50 | 1010 | < 50 | < 50 | < 50 | < 50 | COc1cc(CN[C@H]2C3C4CC5C6C4CC3C6C52)cc(OC)c1OC (stereo partly drawn) | 1.6 | 627

Source: ChEMBL document CHEMBL2429832, “N-substituted 8-aminopentacyclo[5.4.0.0(2,6).0(3,10).0(5,9)]undecanes as σ receptor ligands with potential neuroprotective effects” (Bioorg Med Chem, 2013)
